Common to all, as to type: cell-based
In one assay the target is HLA-A2*0201 (Homo sapiens, UniProt P04439, D140Y/D185E/D98H/E176V/E277Q/G131W/G231S/I119V/I121R/I166T/I218V/L300P/L318F/N151K/N90K/P208A/P217A/Q86G/Q94H/R138H/R169H/T345S). The note with it: peptide at 100, 10 and 1 μM; compared with positive control influenza M1 peptide; three independent experiments.
Assay [1] deals with IFN-γ. Nature of the assay: Cytokine production by splenocytes of immunised FVB/N-DR1 mice, ELISA. The method, then: (§1) After 6 days, the spleens from immunised animals were collected and the cells flushed out using T cell media (RPMI+10% FCS+20 mM HEPES buffer+50 μM 2-mercaptoethanol+50 U/ml penicillin/streptomycin+0.25 μg/ml fungizone). The remaining splenic tissue was digested using an enzyme cocktail (0.1 U/ml DNAase (Sigma)+1.6 mg/ml collagenase (Sigma)) for 1 hour at 37° C. The cell suspension obtained was pooled with the flushed cells, washed once, and the splenocytes were plated in 24 well plates with 10 μg/ml of peptide at a density of 2.5×10^6/ml for FVB/N-DR1 or 3.5×10^6/ml for C57BL/6-DR4. Cells were also cultured with an irrelevant peptide as a control. To measure cytokine production, culture supernatants were collected on day 2 and 5 of the culture for the measurement of cytokine by ELISA.
(§2) Aliquots of supernatants were removed from CTL cultures on days 1 and 5 and on days 2 and 5 from CD4′ T cell cultures and stored at −20° C. until required. ELISA was used to quantitate concentrations of murine IFN-γ and IL-5 (R&D systems, UK).

In assay [2] the test system is IFN-γ. Nature of the assay: Cytokine production by splenocytes of immunised C57BL/6-DR4 mice, ELISA. The following applies: relevant versus irrelevant peptide. Here is the method: as §1, §2
We further investigated HLA-DR class-II restricted responses to PAP peptides that were predicted to bind to HLA-DR1 and HLA-DR4 according to the evidence-based computer assisted algorithm […]. The peptides displaying high binding scores for both HLA-DR alleles were selected and further studied (Table 1). C57BL/6-DR4 mice were immunised with these predicted HLA-DR-restricted PAP and the proliferative and IFN-γ response to peptide stimulation in vitro was monitored by proliferation assays and cytokine measurements. PAP. 64 and PAP.

Another assay concerns HLA-DRβ1*0101. Nature of the assay: Proliferation of splenocytes from immunised HLA-DR1 mice with peptide-pulsed BM-DC (tritiated thymidine). The following applies: for proliferative response of splenocytes from HLA-DR1 mice: FVB/N-DR1 / HLA-DRβ1*0101 transgenic mice; for number of HLA-DR1 mice whose splenocytes demonstrated specific proliferation: responding/total mice, after re-stimulation in vitro with relevant peptide. Here is the method: (§3) HLA-A2.1/K^b mice were immunised with an emulsion consisting of 100 μg of the putative class-I peptide epitope and 100 μg of non-specific class-II peptide derived from hepatitis B virus in 50% incomplete Freund's adjuvant (IFA). HLA-DR4- and HLA-DR1-transgenic mice were immunised twice at one week interval with 100 μg of class-II peptide emulsified in 50% incomplete Freund's adjuvant (IFA) and 50% PBS. All vaccine were delivered as a 100 μl intradermal bolus inoculum at the base of the tail.
(§4) 0DC were generated using a method adapted from Inaba et al (Inaba et al. 1992). Briefly, femurs and tibias were harvested aseptically from non-immunised DR1 or DR4 transgenic mice and placed in sterile PBS supplemented with 50 IU/ml penicillin, 50 μg/ml streptomycin, and 0.25 μg/ml fungizone. The marrow was flushed out of the bone using BM-DC media (RPMI 1640 medium supplemented with 2 mM glutamine, 5% FCS, 10 mM Hepes, 501M 2-ME, 50 μg/ml penicillin, 50 μg/ml streptomycin, 0.25 μg/ml fungisone and 10% of supernatant collected from X-63 cells). The cells were washed once in BM-DC media and plated in 24-well plates at 10^6/well in 1 ml DC media and incubated at 37° C. in a 5% CO2 humidified atmosphere. On days 2 and 4, the non-adherent cells (T cells, B cells, granulocytes) were removed, and the remaining cells were cultured in fresh DC medium. After 7-9 days, clusters of loosely adherent DC were dislodged and collected by gently pipetting, before being washed and seeded in 24-well plates at 0.5×10^6 cells/well in 1 ml DC media. Peptides were added at 1 μg/well and the plates were incubated at 37° C. 1 μg/ml of LPS was added after 5 hours, and the plates were incubated overnight at 37° C. in a 5% CO2 in air-humidified atmosphere.
as §1
Splenocytes from immunised animals cultured for 6 days in the presence of 10 μg of the test peptide were harvested, washed and counted. CD8+ T cells were depleted from the cell suspension using anti-CD8+ antibody coupled with magnetic beads (Dynal, UK) as per the manufacturers instructions. Cells were then washed in PBS and resuspended at 5×10^5/ml in T cell medium. 100 μl of T cells was then added to all wells. Anti-DR antibody (L243) or isotype control were added to some wells to confirm the MHC specificity of the T-cell response. LPS-treated dendritic cells were harvested, washed and incubated in 1 ml of DC medium with the addition of 10 íg of peptide at 37° C. for 5 hours. After washing, 10^3 peptide-pulsed DC were added to the relevant wells of lymphocyte cultures in 50 íl media. […] Plates were harvested onto 96 Uni/Filter (Packard), the scintillation liquid (Microscint 0, Packard) was added and the plates were counted on a Top-Count counter (Packard). […]

In another assay the test system is HLA-DRβ1*0401. As to the kind of experiment: Proliferation of splenocytes from immunised HLA-DR4 mice with peptide-pulsed BM-DC (tritiated thymidine). The following applies: for effect of anti-HLA-DR antibody (L243) on proliferation: not blocked by isotype control; for proliferation of splenocytes from immunised HLA-DR4 mice: re-stimulated in vitro with peptide for 5 days; for number of HLA-DR4 mice whose splenocytes demonstrated specific proliferation: responding/total mice, after re-stimulation in vitro with relevant peptide. The method, then:
as §3, §4, §1
[…] CD8+ T cells were depleted from the cell suspension using anti-CD8+ antibody coupled with magnetic beads (Dynal, UK) as per the manufacturers instructions. Cells were then washed in PBS and resuspended at 5×10^5/ml in T cell medium. 100 μl of T cells was then added to all wells. Anti-DR antibody (L243) or isotype control were added to some wells to confirm the MHC specificity of the T-cell response. LPS-treated dendritic cells were harvested, washed and incubated in 1 ml of DC medium with the addition of 10 íg of peptide at 37° C. for 5 hours. After washing, 10^3 peptide-pulsed DC were added to the relevant wells of lymphocyte cultures in 50 íl media. These plates were then incubated for 3 days at 37° C. in a 5% CO2 in air-humidified atmosphere. Tritriated thymidine was then added to the culture and incubated again for 18 hours. Plates were harvested onto 96 Uni/Filter (Packard), the scintillation liquid (Microscint 0, Packard) was added and the plates were counted on a Top-Count counter (Packard). Results are expressed in counts per minute (cpm) and as a means of the triplicate wells. Statistical analysis was performed using unpaired Student's t test. […]

“Also recorded” adds a separate entry of the source.

Here are results for five sequences from US20100278849A1, “PROSTATIC ACID PHOSPHATASE ANTIGENS” (priority 2004, published 2010).

In the case of “ALASCFCFFC (listed as Homo sapiens) [PAP.15]”, the “binding to HLA-A2 (T2 cells)” value with HLA-A2*0201 was “no significant binding”.
Turning to “IMYSAHDTTV (listed as Homo sapiens) [PAP.284]”, in the assay with HLA-A2*0201, the “binding to HLA-A2 (T2 cells)” value is “Weak binding”.
For the sequence “PQGFGQLTQLGMEQH (listed as Homo sapiens) [PAP.64]”, in the assay with IFN-γ [1], the “IFN-γ or IL-50 (cytokine) production of splenocytes” value is listed as “failed, with the exception of one out six experiments”. Further, the “IFN-γ production by splenocytes” value in the assay with IFN-γ [2] is recorded as “not produced specifically”. Also, in the assay on HLA-DRβ1*0101, the “proliferative response of splenocytes from HLA-DR1 mice” value is “failed, with the exception of one out six experiments” and the “number of HLA-DR1 mice whose splenocytes demonstrated specific proliferation” value is 1/6. For the same sequence, in the assay with HLA-DRβ1*0401, the “effect of anti-HLA-DR antibody (L243) on proliferation” value (from here on “effect of anti-HLA-DR antibody (L243)”) is listed as “inhibited by the addition of L243 antibody”, the “proliferation of splenocytes from immunised HLA-DR4 mice” value is “Specific proliferation” and the “number of HLA-DR4 mice whose splenocytes demonstrated specific proliferation” value was 2/5. Also, in the assay with HLA-DRβ1*0401 (listed as PAP. 64), the “effect of anti-HLA-DR antibody (L243)” value is given as “blocked in the presence of L243 antibody” and the “number of HLA-DR4 mice whose splenocytes demonstrated specific proliferation” value is recorded as 2 out of 5.
As for “SKVYDPLYSESVHNF (listed as Homo sapiens) [PAP.207]”, the “IFN-γ or IL-50 (cytokine) production of splenocytes” value with IFN-γ [1] was “failed, with the exception of one out six experiments”. For the same sequence, the “IFN-γ production by splenocytes” value in the assay on IFN-γ [2] is given as “not produced specifically”. Further, in the assay with HLA-DRβ1*0101, the “proliferative response of splenocytes from HLA-DR1 mice” value was “failed, with the exception of one out six experiments” and the “number of HLA-DR1 mice whose splenocytes demonstrated specific proliferation” value was 0/5. Moreover, in the assay on HLA-DRβ1*0401, the “effect of anti-HLA-DR antibody (L243)” value is on record as “inhibited by the addition of L243 antibody”, the “proliferation of splenocytes from immunised HLA-DR4 mice” value was “Specific proliferation” and the “number of HLA-DR4 mice whose splenocytes demonstrated specific proliferation” value is listed as 1/6. For the same sequence, in the assay on HLA-DRβ1*0401 (listed as PAP. 207), the “effect of anti-HLA-DR antibody (L243)” value is on record as “blocked in the presence of L243 antibody” and the “number of HLA-DR4 mice whose splenocytes demonstrated specific proliferation” value is given as 1 out of 6.
Consider “VLAKELKFV (listed as Homo sapiens) [PAP.30, class-I PAP peptide already known in the art (Peshwa, 1998), reference compound]”, for which, in the assay with HLA-A2*0201, the “binding to HLA-A2 (T2 cells)” value was “strong binding; also recorded: moderate HLA-A2 binding”.
